Assay results as given in US7381705B2, “Inhibitors of hepatitis C virus” (The Administrators Of The Tulane Educational Fund, priority 2004, dated 2008).
Where two headings read alike, the source gives them in different places. Ends that are not written are not given here.

What was measured:
[1] = tested on: HCV pseudotype (HIV core proteins, HCV E1 and E2 of strain H77); conditions: for Percent inhibition: 25 μM; for Inhibition of HCV pseudotype infectivity (in words): summary of Tables 7 and 8
HIV-1 = conditions: AIDS patients, clinical trials; cited from earlier work
[2] = HCV H77 1a E2 peptides at ~25 μM, Table 7, virus alone 448,123
[3] = HCV J4 1b E2 peptides at ~25 μM, Table 8, controls as in Table 7

Row | Substance | Percent inhibition [1] [%] | Luciferase units [1, 2] | Luciferase units [1, 3] | Inhibition of HCV pseudotype infectivity (in words) [1] | HIV-1 load (HIV-1)
1 | NNTRPPLGNWFGCTWMNS [compound 22, NNTRPPLGNWFGCTWMNS] | 45.2 | 245,900 luciferase units (lumens) |  |  | 
2 | NWTRGERCDLEDRDRSEL [compound 37, NWTRGERCDLEDRDRSEL] | −30.7 | 585,553 luciferase units (lumens) |  |  | 
3 | PASQVCGPVYCFTPSPVV [compound 93] | 9.7 |  | 409,220 luciferase units (lumens) |  | 
4 | PNSSDQRPYCWHYAPRPC [compound 90] | 5.5 |  | 423,326 luciferase units (lumens) |  | 
5 | PTDCFRKHPEATYSRCGS [compound 28] | 11.9 | 394,780 luciferase units (lumens) |  |  | 
6 | PTDCFRKHPEATYTKCGS [compound 104] | 6.3 |  | 419,876 luciferase units (lumens) |  | 
7 | PVYCFTPSPVVVGTTDRS [compound 18, PVYCFTPSPVVVGTTDRS] | 2.9 | 435,026 luciferase units (lumens) |  |  | 
8 | PVYCFTPSPVVVGTTDRS [compound 94, PVYCFTPSPVVVGTTDRS] | 30.4 |  | 311,736 luciferase units (lumens) |  | 
9 | PYCWHYAPRPCGVVPASQ [compound 91] | 69.1 |  | 160,883 luciferase units (lumens) |  | 
10 | QILPCAFTTLPALSTGLI [compound 116, QILPCAFTTLPALSTGLI] | 12.1 |  | 394,096 luciferase units (lumens) |  | 
11 | QNIVDVQYLYGVGSSIAS [compound 44, QNIVDVQYLYGVGSSIAS] | 79.6 | 91,266 luciferase units (lumens) |  | inhibitory | 
12 | QVLPCSFTTLPALSTGLI [compound 41, QVLPCSFTTLPALSTGLI] | 3.0 | 434,743 luciferase units (lumens) |  |  | 
13 | RCGSGPWITPRCMVDYPY [compound 30] | −46.2 | 655,040 luciferase units (lumens) |  |  | 
14 | RSELSPLLLSTTQWQVLP [compound 39, RSELSPLLLSTTQWQVLP] | 11.6 | 400,756 luciferase units (lumens) |  |  | 
15 | SIASWAIKWEYVVLLFLL [compound 46, SIASWAIKWEYVVLLFLL] | 77.0 | 103,040 luciferase units (lumens) |  | inhibitory | 
16 | SPVVVGTTDRSGAPTYSW [compound 19, SPVVVGTTDRSGAPTYSW] | 32.7 | 301,406 luciferase units (lumens) |  |  | 
17 | SPVVVGTTDRSGVPTYSW [compound 95, SPVVVGTTDRSGVPTYSW] | −20.1 |  | 538,110 luciferase units (lumens) |  | 
18 | SSGCPERLASCRRLTDFA [compound 10] | 25.4 | 334,196 luciferase units (lumens) |  |  | 

Row | Substance | Percent inhibition [1] [%] | Luciferase units [1, 2] | Luciferase units [1, 3] | Inhibition of HCV pseudotype infectivity (in words) [1] | HIV-1 load (HIV-1)
19 | SSGCPERMASCRPIDWFA [compound 87] | 10.8 |  | 399,700 luciferase units (lumens) |  | 
20 | TDFAQGWGPISYANGSGL [compound 12, TDFAQGWGPISYANGSGL] | 6.8 | 417,706 luciferase units (lumens) |  |  | 
21 | TDRSGVPTYSWGENETDV [compound 96, TDRSGVPTYSWGENETDV] | −21.5 |  | 544,596 luciferase units (lumens) |  | 
22 | TGFFAALFYAHKFNSSGC [compound 51, TGFFAALFYAHKFNSSGC] | 47.1 |  | 237,086 luciferase units (lumens) |  | 
23 | TGLIHLHQNIVDVQYLYG [compound 43, TGLIHLHQNIVDVQYLYG] | 92.8 | 32,283 luciferase units (lumens) |  | inhibitory | 
24 | TKTCGGPPCNIGGVGNRT [compound 101] | −12.0 |  | 502,096 luciferase units (lumens) |  | 
25 | TKVCGAPPCVIGGVGNNT [compound 25] | 7.2 | 480,280 luciferase units (lumens) |  |  | 
26 | TSLFSSGASQKIQLVNTN [compound 82, TSLFSSGASQKIQLVNTN] | 61.4 |  | 173,156 luciferase units (lumens) |  | 
27 | TTLPALSTGLIHLHQNIV [compound 42, TTLPALSTGLIHLHQNIV] | 19.1 | 353,516 luciferase units (lumens) |  |  | 
28 | TTLPALSTGLIHLHQNIV [compound 117, TTLPALSTGLIHLHQNIV] | 19.8 |  | 359,236 luciferase units (lumens) |  | 
29 | TYSWGANDTDVFVLNNTR [compound 20, TYSWGANDTDVFVLNNTR] | 48.4 | 231,373 luciferase units (lumens) |  |  | 
30 | TYSWGENETDVMLLNNTR [compound 97, TYSWGENETDVMLLNNTR] | 51.2 |  | 218,673 luciferase units (lumens) |  | 
31 | VGLLTPGAKQNIQLINTN [peptide 4, VGLLTPGAKQNIQLINTN] | 97.6 | 10,620 luciferase units (lumens) |  | inhibitory | 
32 | WMNSTGFTKTCGGPPCNI [compound 100] | −15.6 |  | 518,190 luciferase units (lumens) |  | 
33 | WMNSTGFTKVCGAPPCVI [compound 24] | 19.7 | 391,886 luciferase units (lumens) |  |  | 
34 | YLYGVGSSIASWAIKWEY [compound 45, YLYGVGSSIASWAIKWEY] | 94.5 | 24,703 luciferase units (lumens) |  | inhibitory | 
35 | YTIFKVRMYVGGVEHRLE [compound 34, YTIFKVRMYVGGVEHRLE] | 21.8 | 354,696 luciferase units (lumens) |  |  | 
36 | enfuvirtide |  |  |  |  | substantially reduce
